We go through six molecules from patent US10098867B2, “Use of phytocannabinoids in the treatment of ovarian carcinoma” (GW Research Limited, priority 2013, dated 2018).

The subject of assay [1] is ovarian carcinoma cell line, A2780. Nature of the assay: MTT cell viability assay, single phytocannabinoids (Example 1). It is filed as cell-based. The conditions noted are these: A2780 cells; for IC50: MTT. As for the experimental part:
(§1) An ovarian carcinoma cell line, A2780 was grown and maintained in RPMI 1640 medium supplemented with 10% fetal bovine serum at 37° C., 5% CO2. The cells were plated in 96-well culture plates at a density of 1×10^4 cells/well and allowed to adhere at 37° C. for 24 hours.
The cells were starved with 1% serum overnight, then treated with various concentrations of different phytocannabinoid ([…]) for various incubation periods.
The different phytocannabinoids tested were: cannabidiol (CBD); cannabidiol acid (CBDA); cannabigerol (CBG); cannabigerolic acid (CBGA); cannabigerol propyl variant (CBGV); and tetrahydrocannabivarin (THCV).
A cell viability assay, MTT, was performed following four different incubation times of 24 hours, 48 hours, 72 hours and 96 hours.
(§2) The supernatant was removed and MTT (3-(4,5-dimethylthiazol-2-yl)-2,5-diphenyltetrazolium bromide) was added for 4 hours. The ability of cells to form formazan crystals by active mitochondrial respiration was determined by using a Microplate reader after dissolving the crystals in DMSO.
(§3) Cytotoxicity was expressed as a relative percentage of the absorbance measured at 540 nm in the control and drug-treated cells. IC50 values were also calculated.
(§4) In all experiments data were presented as the mean and analysed using ANOVA followed by Dunnet's t-test; n=4.

Assay [2] has the same test system. Nature of the assay: MTT cell viability assay, combinations of phytocannabinoids (Example 2). The following applies: Homo sapiens, A2780 cells. The format is cell-based. Here is the method:
as §1
The different phytocannabinoid combinations that were tested were: A: cannabidiol (CBD) in combination with tetrahydrocannabivarin (THCV) and B: CBD in combination with cannabigerol (CBG).
The cells were starved with 1% serum overnight. In Experiment A various doses of CBD (1 nM-10 μM) were tested in the absence or presence of 1 hours pre-treatment of THCV (1 μM) for various incubation periods. In Experiment B various doses of CBD (1 nM-10 μM) were tested in the absence or presence of CBG (1 nM-100 μM) for various incubation periods.
A cell viability assay, MTT, was performed following four different incubation times of 24 hours, 48 hours (CBG combination only), 72 hours and 96 hours.
as §2, §3, §4
(Tetrazolium assays rely on reduction of a dye to a coloured formazan, in cell work by metabolically active cells.)

[3] abbreviates: 24 hours after the cannabinoids were added.
[4] abbreviates: Homo sapiens, 24 hours incubation.
[5] abbreviates: Homo sapiens, 48 hours incubation.
Setting [6] is: Homo sapiens, 72 hours incubation.
Where [7] appears, read: Homo sapiens, 96 hours incubation.
The mark [8] stands for this setting: A2780, 24 h, Experiment A (CBD with or without 1 hour pre-treatment with THCV 1 μM), 24 hours.
Setting [9] is: A2780, 24 h, Experiment B (CBD in absence or presence of CBG), 24 hours.
Setting [10] is: A2780, 48 h, Experiment B (CBD in absence or presence of CBG), 48 hours.
Where [11] appears, read: A2780, 72 h, Experiment A (CBD with or without 1 hour pre-treatment with THCV 1 μM), 72 hours.
[12] abbreviates: A2780, 72 h, Experiment B (CBD in absence or presence of CBG), 72 hours.
[13] abbreviates: A2780, 96 h, Experiment A (CBD with or without 1 hour pre-treatment with THCV 1 μM), 96 hours.
Where [14] appears, read: A2780, 96 h, Experiment B (CBD in absence or presence of CBG), 96 hours.

By IC50 is commonly meant the concentration that inhibits the measured activity by half. With `C=C(C)[C@@H]1CCC(C)=C[C@H]1c1c(O)cc(CCCCC)cc1O` [CBD, Cannabidiol], the potency in words entry in assay [1] (setting [3]) is reported as “very potent”. Besides, the IC50 in assay [1] (setting [4]) stood at 0.98 µM; in assay [1] (setting [5]), 0.95 µM; in assay [1] (setting [6]), 1.9 µM; in assay [1] (setting [7]), 3.63 µM; in assay [2] (setting [8]), 12.5 µM; in assay [2] (setting [9]) it was 11.8 µM. In addition, the IC50 in assay [2] (setting [10]) stood at 6.85 µM; in assay [2] (setting [11]), 5.87 µM; in assay [2] (setting [12]), 7.92 µM; in assay [2] (setting [13]) it was 5.62 µM; in assay [2] (setting [14]), 4.43 µM.

`C=C(C)[C@@H]1CCC(C)=C[C@H]1c1c(O)cc(CCCCC)c(C(=O)O)c1O` [CBDA, Cannabidiolic acid]: the IC50 was found to be 16 µM in assay [1] (setting [4]), 9.5 µM in assay [1] (setting [5]), 10 µM in assay [1] (setting [6]) and 11.8 µM in assay [1] (setting [7]).

For `CCCCCc1cc(O)c(C/C=C(\C)CCC=C(C)C)c(O)c1` [CBG, Cannabigerol], the potency in words result in assay [1] (setting [3]) is recorded as “very potent”; in assay [1] (after 48 hours), “marginally more potent than CBD”. Also, the IC50 in assay [1] (setting [4]) amounted to 2 µM; in assay [1] (setting [5]), 0.83 µM; in assay [1] (setting [6]), 0.85 µM; in assay [1] (setting [7]), 3.38 µM; in assay [2] (setting [9]) it was 13.9 µM; in assay [2] (setting [10]) it was 9.48 µM. In addition, the results for the IC50 in assay [2] (setting [12]) and in assay [2] (setting [14]) were 9.96 µM and 8.96 µM, respectively.

`CCCc1cc(O)c(C/C=C(\C)CCC=C(C)C)c(O)c1` [CBGV, Cannabigerol propyl variant]: the values for the IC50 in assay [1] (setting [4]), in assay [1] (setting [5]) and in assay [1] (setting [6]) were 6 µM, 3.5 µM and 4 µM, respectively.

Consider `CCCc1cc(O)c2c(c1)OC(C)(C)[C@@H]1CCC(C)=C[C@@H]21` [THCV, Tetrahydrocannabivarin], for which the IC50 in assay [1] (setting [4]) is 8 µM; in assay [1] (setting [5]), 5.75 µM; in assay [1] (setting [6]), 8.75 µM; in assay [1] (setting [7]), 9 µM; in assay [2] (setting [8]), 16.2 µM; in assay [2] (setting [11]), 14.8 µM. Besides, the IC50 in assay [2] (setting [13]) turned out to be 10.5 µM.

For Cannabigerolic acid [CBGA], the IC50 was 12.5 µM in assay [1] (24 hours incubation), 9.9 µM in assay [1] (48 hours incubation) and 9.25 µM in assay [1] (72 hours incubation).
